Legend:
[1] = stabilization (photostability) of Butyl Methoxydibenzoylmethane in O/W emulsion film under solar simulator, HPLC; format: physicochemical; conditions: 20 μm film on quartz plate, solar simulator 2 h (10 MED)
Description: Testing of stabilization of Butyl Methoxydibenzoylmethane (BMDBM, Parsol 1789):
The photostability of Butyl Methoxydibenzoylmethane is determined by spreading the emulsion as a 20 μm thick film on a quartz plate. The film is irradiated using a solar simulator for 2 h (10 MED). After irradiation, the quartz plate is plunged into 5 ml of tetrahydrofurane. The amount of UV-A filter Butyl Methoxydibenzoylmethane is then determined using high performance liquid chromatography. The residual Butyl Methoxydibenzoylmethane is determined to be 47%.
The photostability of Butyl Methoxydibenzoylmethane in the comparative formulation C is determined as described above for formulation B. The residual Butyl Methoxydibenzoylmethane is determined to be 4%.

[2] = photostability of 4-Methoxybenzylidene-di-tert-butyl-malonate in O/W emulsion film under solar simulator, HPLC; format: physicochemical; conditions: formulation A, solar simulator up to 10 h (50 MED)
Description: The photostability of Butyl 4-Methoxybenzylidene-di-tert-butyl-malonate is determined by spreading the emulsion as a 20 μm thick film on four quartz plates. The plates are irradiated using a solar simulator for 1 h (5 MED), 2 h (10 MED), 4 h (20 MED) and 10 h (50 MED). After the indicated irradiation times one of the quartz plate is plunged into 5 ml of tetrahydrofurane. The amount of UV-B filter 4-Methoxybenzylidene-di-tert-butyl-malonate is then determined using high performance liquid chromatography. The residual 4-Methoxybenzylidene-di-tert-butyl-malonate is determined to be 100% (±1%) in all cases.

COc1ccc(C(=O)CC(=O)c2ccc(C(C)(C)C)cc2)cc1 [Butyl Methoxydibenzoylmethane, 1,3-Propanedione, 1-[4-(1,1-dimethylethyl)phenyl]-3-(4-methoxyphenyl)-]
residual Butyl Methoxydibenzoylmethane ([1]; comparative formulation C (without benzylidene malonate)): 4%
residual Butyl Methoxydibenzoylmethane ([1]; formulation B (with 4-Methoxybenzylidene-di-tert-butyl-malonate)): 47%

COc1ccc(C=C(C(=O)OC(C)(C)C)C(=O)OC(C)(C)C)cc1 [Example 18, 4-Methoxybenzylidene-di-tert-butyl-malonate]
photostability in an O/W sunscreen formulation [2]: complete photostability

Reference: patent US20120128745A1, “BENZYLIDENE MALONATES” (BASF SE, priority 2009, published 2012)
